# Data: patent US4868299A, “Antibacterially active pyrido-benzothiazine derivatives with long-term action” (Mediolanum Farmaceutici Srl, priority 1986, dated 1989)
# Like-named read-outs stand apart in the source and are kept apart here.
# Legend:
# [1] = plasma and tissue concentrations after oral administration to the rat (HPLC); type: in vivo; settings: for concentration at 0.5 h: 0.5 hours after treatment; for concentration at 4 h: 4 hours after treatment; for concentration at 15 h: 15 hours after treatment
# Description: (§1) The compound (X) was administered orally at a dose of 50 mg/kg to the rat after which the plasma, tissue and urine concentrations were evaluated by the HPLC method, as described hereinafter.
# The plasma and tissues (heart, kidney and liver) were withdrawn from groups of 3 female rats at various times after oral administration.
# (§2) The HPLC determination was made by the following procedure: 2 mg of N-dimethyldiarepam (internal standard), 1 ml of citrate buffer (0.1 M, pH 6.2) and 6 ml of chloroform are added to 1 ml of plasma or to 1 ml of supernatant obtained after centrifuging a homogenized tissue in 3 volumes of physiological solution at 2000 r.p.m. for 5 minutes.
# (§3) After agitating for 20 minutes and centrifuging at 3000 r.p.m. for 5 minutes, the organic phase is separated and dried over a water bath at 70° C.
# (§4) The residue is collected in 50 μl of methanol, and 20 μl of the solution are injected into a HPLC (Gilson) column under the following conditions: column μ Bondopak C-18 ([…], wavelength 245 nm), flow: 0.7 ml/min, mobile phase: (A) 0.1% acetic acid and (B) methanol, gradient: […]
# [2] = urine concentrations after oral administration to the rat (HPLC); type: in vivo; settings: 50 mg/kg oral; for Cumulative excretion (urine) / Volume excreted (urine): pool of 6 rats
# Description: as §1
# The urine was collected at various times during the 24 hours following administration. The results relative to urine concentrations are summarised in Table 2, and refer to a urine pool obtained form 6 female rates having a weight of about 100 g.
# as §2, §3, §4
# Pseudomonas 22437 = experiment: in-vitro antibacterial activity, MIC by agar dilution (multipoint inoculator); type: cell-based; settings: 18 hours at 37° C, read-out: Minimum Inhibiting Concentration (MIC)
# Description: (§5) The antibacterial activity of the compounds according to the invention was determined "in vitro" on pathogenic strains of recent clinical isolation by testing agar dilutions using a multipoint inoculator (Denley Techn. Ltd., England).
# (§6) The culture medium used is isosensitest agar (Oxoid), in a quantity of 20 ml in a Petri capsule. The compounds to be tested were dissolved at various dilutions and incorporated in agar.
# (§7) The bacterial inoculum, originating from an overnight broth and containing 10^5 colony-forming units per point, was inoculated by a multipoint inoculator. The bacterial growth was evaluated after 18 hours of incubation at 37° C.
# (§8) For comparison purposes, the results relative to compound (XIII) and to nalidixic acid are also reported.
# Citrobacter 118 = experiment: as above; type: cell-based; settings: Citrobacter 118; 18 hours at 37° C; read-out: Minimum Inhibiting Concentration (MIC)
# Description: as §5, §6, §7, §8
# Citrobacter 120 = experiment: as above; type: cell-based; settings: Citrobacter 120; 18 hours at 37° C; read-out: Minimum Inhibiting Concentration (MIC)
# Description: as §5, §6, §7, §8
# Escherichia 963 = experiment: as above; type: cell-based; settings: Escherichia 963; 18 hours at 37° C; read-out: Minimum Inhibiting Concentration (MIC)
# Description: as §5, §6, §7, §8
# Enterobacter 2653 = experiment: as above; type: cell-based; settings: Enterobacter 2653; 18 hours at 37° C; read-out: Minimum Inhibiting Concentration (MIC)
# Description: as §5, §6, §7, §8
# Proteus 966 = experiment: as above; type: cell-based; settings: Proteus 966; 18 hours at 37° C; read-out: Minimum Inhibiting Concentration (MIC)
# Description: as §5, §6, §7, §8
# Serratia 10 = experiment: as above; type: cell-based; settings: 18 hours at 37° C, read-out: Minimum Inhibiting Concentration (MIC)
# Description: as §5, §6, §7, §8
# Staphylococcus 7 = experiment: as above; type: cell-based; settings: Staphylococcus 7; 18 hours at 37° C; read-out: Minimum Inhibiting Concentration (MIC)
# Description: as §5, §6, §7, §8
# Enterobacter 041 = experiment: as above; type: cell-based; settings: Enterobacter 041; 18 hours at 37° C; read-out: Minimum Inhibiting Concentration (MIC)
# Description: as §5, §6, §7, §8
# Pseudomonas 19 = experiment: as above; type: cell-based; settings: Pseudomonas 19; 18 hours at 37° C; read-out: Minimum Inhibiting Concentration (MIC)
# Description: as §5, §6, §7, §8
# Proteus 25 = experiment: as above; type: cell-based; settings: Proteus 25; 18 hours at 37° C; read-out: Minimum Inhibiting Concentration (MIC)
# Description: as §5, §6, §7, §8
# Staphylococcus 29 = experiment: as above; type: cell-based; settings: Staphylococcus 29; 18 hours at 37° C; read-out: Minimum Inhibiting Concentration (MIC)
# Description: as §5, §6, §7, §8
# Serratia 9 = experiment: as above; type: cell-based; settings: Serratia 9; 18 hours at 37° C; read-out: Minimum Inhibiting Concentration (MIC)
# Description: as §5, §6, §7, §8
# Escherichia 15 = experiment: as above; type: cell-based; settings: 18 hours at 37° C, read-out: Minimum Inhibiting Concentration (MIC)
# Description: as §5, §6, §7, §8
# Klebsiella 4 = experiment: as above; type: cell-based; settings: Klebsiella 4; 18 hours at 37° C; read-out: Minimum Inhibiting Concentration (MIC)
# Description: as §5, §6, §7, §8
# [3] = rat, 50 mg/kg oral, heart, read-out: Heart concentration
# [4] = rat, 50 mg/kg oral, kidney, read-out: Kidney concentration
# [5] = rat, 50 mg/kg oral, liver, read-out: Liver concentration
# [6] = rat, 50 mg/kg oral, plasma, read-out: Plasma concentration
compound,measurement,setting,value
"CC1Cn2cc(C(=O)O)c(=O)c3cc(F)c(N4CCN(C)CC4)c(c32)S1 (centres unmarked) [(X), 9-fluoro-10[N(N'-methyl)piperazinyl]-2-methyl-7-oxo-2,3-dihydro-7H-pyrido[1,2,3-de][1,4]benzothiazine-6-carboxylic acid]","absorption after oral administration, in words","[1]; rat, 50 mg/kg oral",rapidly absorbed after oral administration to induce high tissue levels
same,"heart, kidney and liver concentrations relative to plasma, in words","[1]; rat, 50 mg/kg oral",always greater than those observed in the plasma
same,"tissue bioavailability, in words","[1]; rat, 50 mg/kg oral",excellent tissue bioavailability
same,"concentrations relative to the MIC values, in words","[1]; rat, 50 mg/kg oral, 15 hours after administration",high concentrations relative to the MIC values are still present
same,concentration at 0.5 h,[1]; [3],19200 ng/g
same,concentration at 4 h,[1]; [3],18600 ng/g
same,concentration at 15 h,[1]; [3],4630 ng/g
same,concentration at 0.5 h,[1]; [4],34400 ng/g
same,concentration at 4 h,[1]; [4],38700 ng/g
same,concentration at 15 h,[1]; [4],5900 ng/g
same,concentration at 0.5 h,[1]; [5],62900 ng/g
same,concentration at 4 h,[1]; [5],34300 ng/g
same,concentration at 15 h,[1]; [5],9370 ng/g
same,concentration at 0.5 h,[1]; [6],10.2 µg/mL
same,concentration at 4 h,[1]; [6],8.1 µg/mL
same,concentration at 15 h,[1]; [6],3.5 µg/mL
same,"urine concentrations, in words",[2],lasting and high
same,Cumulative excretion (urine),[2]; 0-1 hours after treatment,0.50 mg
same,Volume excreted (urine),[2]; 0-1 hours after treatment,5.5 mL
same,Cumulative excretion (urine),[2]; 1-2 hours after treatment,1.33 mg
same,Volume excreted (urine),[2]; 1-2 hours after treatment,3.2 mL
same,Cumulative excretion (urine),[2]; 2-4 hours after treatment,2.05 mg
same,Volume excreted (urine),[2]; 2-4 hours after treatment,7.2 mL
same,Cumulative excretion (urine),[2]; 4-8 hours after treatment,3.13 mg
same,Volume excreted (urine),[2]; 4-8 hours after treatment,6.0 mL
same,Cumulative excretion (urine),[2]; 8-24 hours after treatment,8.17 mg
same,Volume excreted (urine),[2]; 8-24 hours after treatment,28.0 mL
same,concentration at 1 h,"[2]; urine, 0-1 hours after treatment",90 µg/mL
same,concentration at 2 h,"[2]; urine, 1-2 hours after treatment",260 µg/mL
same,concentration at 4 h,"[2]; urine, 2-4 hours after treatment",100 µg/mL
same,concentration at 8 h,"[2]; urine, 4-8 hours after treatment",180 µg/mL
same,concentration at 24 h,"[2]; urine, 8-24 hours after treatment",180 µg/mL
same,dose excreted at 24 h,"[2]; urine, within 24 hours, of the orally administered dose, read-out: percentage urine excretion of the non-metabolized product",~27%
same,MIC,Pseudomonas 22437,16 µg/mL
same,MIC,Citrobacter 118,0.5 µg/mL
same,MIC,Citrobacter 120,0.25 µg/mL
same,MIC,Escherichia 963,2 µg/mL
same,MIC,Enterobacter 2653,0.5 µg/mL
same,MIC,Proteus 966,8 µg/mL
same,MIC,Serratia 10,2 µg/mL
same,MIC,Staphylococcus 7,2 µg/mL
same,MIC,Enterobacter 041,0.25 µg/mL
same,MIC,Pseudomonas 19,16 µg/mL
same,MIC,Proteus 25,8 µg/mL
same,MIC,Staphylococcus 29,2 µg/mL
same,MIC,Serratia 9,8 µg/mL
same,MIC,Escherichia 15,0.25 µg/mL
same,MIC,Klebsiella 4,0.25 µg/mL
"CC1Cn2cc(C(=O)O)c(=O)c3cc(F)c(N4CCNCC4)c(c32)S1 (centres unmarked) [(XI), 9-fluoro-10[N-piperazinyl]-2-methyl-7-oxo-2,3-dihydro-7H-pyrido[1,2,3-de][1,4]benzothiazine-6-carboxylic acid]","results of the tests operating in accordance with the described procedures, in words","[1]; rat, in vivo",analogous to the tests carried out with compound (X)
"CC1Cn2cc(C(=O)O)c(=O)c3cc(F)c(N4CCCC4)c(c32)S1 (centres unmarked) [(XII), 9-fluoro-10[N-pyrrolidine]-2-methyl-7-oxo-2,3-dihydro-7H-pyrido[1,2,3-de][1,4]benzothiazine-6-carboxylic acid]","results of the tests operating in accordance with the described procedures, in words",[1]; compared with compound (X),analogous to the tests carried out with compound (X)
same,MIC,Pseudomonas 22437,16 µg/mL
same,MIC,Citrobacter 118,16 µg/mL
same,MIC,Citrobacter 120,2 µg/mL
same,MIC,Escherichia 963,16 µg/mL
same,MIC,Enterobacter 2653,16 µg/mL
same,MIC,Proteus 966,2 µg/mL
same,MIC,Serratia 10,2 µg/mL
same,MIC,Staphylococcus 7,0.25 µg/mL
same,MIC,Enterobacter 041,2 µg/mL
same,MIC,Pseudomonas 19,2 µg/mL
same,MIC,Proteus 25,2 µg/mL
same,MIC,Staphylococcus 29,0.25 µg/mL
same,MIC,Serratia 9,16 µg/mL
same,MIC,Escherichia 15,2 µg/mL
same,MIC,Klebsiella 4,2 µg/mL
